Patent publication US10881716B2, “Rapid-acting insulin formulation comprising a substituted anionic compound” (ADOCIA, priority 2012, dated 2021)
Counter-ions that a name gives are not always drawn.

Columns and labels:
[1] = molecular target: human insulin (hexameric form) (Homo sapiens, UniProt P01308); assay: Association state of human insulin evaluated by circular dichroism (CD signal at 275 nm); assay type: physicochemical; details: D2, FIG. 12; rhINS + 9.3 mM citrate, 6 mM EDTA, 7.3 mg/ml Compound 1, 20 mg/ml Polyanionic compound 1
Protocol: (§1) Circular dichroism makes it possible to study the secondary and quaternary structure of insulin. The insulin monomers are organized as dimers and as hexamers. […] The CD signal at 275 nm is characteristic of the hexameric form of insulin (hexamer signal at about −300°, signal for the dimer between −200° and −250°, and signal for the monomer below −200°. Loss of the CD signal at 275 nm is therefore characteristic of destabilization of the hexamer into dimers or monomers.
as §1, with “−200°).” for “−200°.”

[2] = molecular target: T1, lispro insulin (R6 hexameric form) (Homo sapiens, UniProt P01308, K53P/P52K); assay: Association state of lispro insulin evaluated by circular dichroism (CD signal at 251 nm); assay type: physicochemical; details: D1, FIG. 11; Humalog + 9.3 mM citrate, 6 mM EDTA, 7.3 mg/ml Compound 1, 20 mg/ml Polyanionic compound 1
T1 construct: purchased Eli Lilly Humalog®
From the text: (§2) Circular dichroism makes it possible to study the secondary and quaternary structure of insulin. The insulin monomers are organized as dimers and as hexamers. […] Two hexameric forms exist, the R6 form and the T6 form. […] Loss of the CD signal at 251 nm is linked to destabilization of the hexamer (and thus the first sign of transformation of the hexamer into dimer).
as §2, with “dimer). […]” for “dimer).”

[3] = molecular target: human insulin (Homo sapiens, UniProt P01308); assay: Dissolution of human insulin at its isoelectric point (pH 5.3); assay type: binding; details: translucent = Yes, turbid = No
Protocol: If an interaction exists, it is possible to dissolve the insulin at its isoelectric point. […] Solutions of compounds at different concentrations (8, 30 or 100 mg/mL) in water are prepared. […] The pH of the various solutions is adjusted to pH 5.3 by adding 200 mM acetic acid. The appearance of the solution is documented.

[4] = molecular target: BSA (bovine serum albumin) (Bos taurus, UniProt P02769); assay: Interaction with albumin, Centricon test (50 kDa membrane), UV assay of the filtrate; assay type: binding; details: 2.43 mg/mL of polysaccharide or compound, 13.3 mg/mL of albumin in PBS, about 100 mM of salts
Protocol: F1: In order to determine the interactions between the various polysaccharides or compounds and a model protein such as albumin, a Centricon test (membrane with a cut-off threshold of 50 kDa) was performed. A solution of polysaccharide or of compound at 7.3 mg/mL was diluted three-fold in a solution of BSA (bovine serum albumin) at 20 mg/mL in PBS (concentration in the mixture: 2.43 mg/mL of polysaccharide or of compound, 13.3 mg/mL of albumin and about 100 mM of salts).
This mixture was centrifuged on a Centricon to make about half the volume pass through the membrane. The albumin is quantitatively retained on the Centricon membrane. The polysaccharides and compounds analyzed alone pass in large majority through the membrane (for the polysaccharides having the largest molar masses, about 20% of the polysaccharide is retained).
After centrifugation, the polysaccharide or compound is assayed by UV in the filtrate. The percentage of polysaccharide or compound bound to the albumin is calculated via the following equation:
(1-[polysaccharide or compound in the filtrate in the presence of albumin]/[polysaccharide or compound in the filtrate in the absence of albumin])*100

[5] = system: man; details: subcutaneously-injected, diabetic patients; cited from earlier work
[6] = pH at which the insulin precipitates; cited from earlier work

Sequence of BSA (bovine serum albumin) (P02769 25-607): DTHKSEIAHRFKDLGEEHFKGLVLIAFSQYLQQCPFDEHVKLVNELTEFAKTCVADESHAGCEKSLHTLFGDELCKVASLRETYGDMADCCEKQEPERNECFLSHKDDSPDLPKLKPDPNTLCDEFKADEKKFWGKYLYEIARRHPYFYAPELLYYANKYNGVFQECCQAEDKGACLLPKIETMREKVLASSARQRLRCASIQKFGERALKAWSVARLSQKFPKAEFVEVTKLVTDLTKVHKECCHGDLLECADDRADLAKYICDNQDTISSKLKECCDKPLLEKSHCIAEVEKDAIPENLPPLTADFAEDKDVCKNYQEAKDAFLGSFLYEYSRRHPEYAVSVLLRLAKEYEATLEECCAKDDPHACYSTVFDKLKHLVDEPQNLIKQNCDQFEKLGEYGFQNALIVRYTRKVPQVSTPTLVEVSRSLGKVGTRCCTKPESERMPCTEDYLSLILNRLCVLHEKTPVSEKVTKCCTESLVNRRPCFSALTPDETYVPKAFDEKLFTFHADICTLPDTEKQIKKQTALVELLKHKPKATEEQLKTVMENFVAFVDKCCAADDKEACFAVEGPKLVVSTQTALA
Sequence of human insulin (hexameric form) (P01308 25-54 limits assumed): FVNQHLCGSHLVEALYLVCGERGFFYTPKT
Sequence of human insulin (hexameric form) (P01308 90-110 limits assumed): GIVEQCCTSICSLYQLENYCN
Sequence of human insulin (P01308 25-54 limits assumed): as the sequence (P01308 25-54 limits assumed) above
T1 sequence (P01308 25-54 P52K/K53P limits assumed): as the sequence (P01308 25-54 limits assumed) above, with P28K, K29P counted along it

Molecule: O=C(O)CN(CCN(CC(=O)O)CC(=O)O)CC(=O)O [EDTA, reference compound]
- impact on the CD signal at 275 nm / hexameric structure of human insulin [1]: total dissociation of the hexamer into dimers
- impact on the CD signal at 251 nm / R6 hexameric form of lispro insulin [2]: completely destructure the R6 form of lispro insulin

Molecule: Sodium Maltotriosemethylcarboxylate [Polyanionic compound 1]
- impact on the CD signal at 275 nm / hexameric structure of human insulin [1]: no impact on the hexameric structure of human insulin

Molecule: Sodium Maltooctaosemethylcarboxylate Functionalized with Sodium L-Phenylalaninate [Compound 9]
- Dissolution of human insulin at 100 IU/mL with the compound at 4 mg/mL [3]: No
- Dissolution of human insulin at 100 IU/mL with the compound at 15 mg/mL [3]: No
- Dissolution of human insulin at 100 IU/mL with the compound at 50 mg/mL [3]: Yes
- % Polysaccharide or % Compound bound to BSA [4]: 43%

Molecule: Sodium Maltopentaosemethylcarboxylate Functionalized with Sodium L-Phenylalaninate [Compound 8]
- Dissolution of human insulin at 100 IU/mL with the compound at 4 mg/mL [3]: No
- Dissolution of human insulin at 100 IU/mL with the compound at 15 mg/mL [3]: No
- Dissolution of human insulin at 100 IU/mL with the compound at 50 mg/mL [3]: Yes
- % Polysaccharide or % Compound bound to BSA [4]: 27%

Molecule: Sodium Maltotriosemethylcarboxylate Functionalized with Sodium L-Tyrosinate [Compound 10]
- Dissolution of human insulin at 100 IU/mL with the compound at 4 mg/mL [3]: No
- Dissolution of human insulin at 100 IU/mL with the compound at 15 mg/mL [3]: No
- Dissolution of human insulin at 100 IU/mL with the compound at 50 mg/mL [3]: Yes

Molecule: human insulin: insulin obtained by synthesis or recombination, whose peptide sequence is the sequence of human insulin
- hypoglycemiant effect only after [5]: 60 min

Molecule: Lispro insulin: rapid insulin analog, active principle of Humalog
- isoelectric point [6]: 5.3

Molecule: O=C(O)CC(O)(CC(=O)O)C(=O)O [citrate, sodium citrate]
- impact on the CD signal at 275 nm / hexameric structure of human insulin [1]: no impact on the hexameric structure of human insulin
- impact on the CD signal at 251 nm / R6 hexameric form of lispro insulin [2]: virtually no impact on the CD signal at 251 nm

Molecule: Sodium Maltotriosemethylcarboxylate Functionalized with Sodium Alpha-Phenylglycinate [Compound 11]
- % Polysaccharide or % Compound bound to BSA [4]: 35%
